Experimental data from US20250177537A1, “AN ANTIBIOTIC, METHOD OF PREPARATION AND METHOD OF TREATMENT THEREOF” (National Taiwan University, priority 2023, published 2025).
In brackets after ≈: the same amount, converted by molar mass. Like-named read-outs stand apart in the source and are kept apart here. Bridge positions count the residues as written; N and C are the ends. Square brackets hold non-standard residues; d marks the D form. Peptide text beside a SMILES is read from it. * marks the point of attachment. d(aThr) = C[C@@H](O)[C@@H](N)C(=O)O; Palmitoyl = CCCCCCCCCCCCCCCC(=O)*; dPip = O=C(O)[C@H]1CCCCN1; hSer = N[C@@H](CCO)C(=O)O; Dap = NC[C@H](N)C(=O)O

Assays:
Bacillus subtilis [1] = assay: Growth inhibitory zone assay; format: cell-based; settings: mixed with B1 at 50 mM each, 12 hours, room temperature
Experimental: The antimicrobial activities of our peptide (B1) in combination with various boron species were tested by the growth inhibitory zone assay (FIG. 26). B1 was mixed with various boron species at 50 mM each (final concentration). These mixtures were then spotted on a lawn of Bacillus subtilis. After 12 hours of incubation at room temperature, combinations effective at inhibiting bacterial growth would appear as a circular zone.

[2] = test system: vancomycin-resistant strains (VRE); assay: Activity spectrum MIC; format: cell-based, Enterococcus; settings: PBA 50 μg/mL
Escherichia coli = assay: Activity spectrum MIC; format: cell-based; settings: PBA 50 μg/mL
Rhodococcus hoagii = assay: Activity spectrum MIC; format: cell-based; settings: PBA 50 μg/mL
HEK293T cells = assay: cells; format: cell-based; settings: 24 h
Experimental: HEK293T cells were cultured in Dulbecco's Modified Eagle's Medium supplemented with 10% fetal bovine serum and 1% Antibiotic antimycotic at 37° C. under humidified atmosphere and 5% CO2. Cytotoxicity assays began by seeding 2×10^4 HEK293T cells per well in a 96-well plate. Cells were given 20 to 24 h to adhere, washed with fresh medium, and then a 2-fold dilution series of the compounds of interest were added. The highest concentration tested for S1, B1, and PBA were 128, 128, and 1,280 μg/mL, respectively; for the B1-plus-PBA series, the PBA concentration was held constant at 5 μg/mL while the B1 concentration varied. After incubation for 24 h, the medium was discarded, the cells rinsed with PBS buffer, and 100 μL of 0.5 mg/mL MTT in […] was added to each well. The plate was incubated for 2 h before discarding the MTT solution. The cells were wash with PBS, and then the resulting purple crystals were dissolved by DMSO (100 μL per well). Absorbance at 570 nm for each well was recorded, and cell viability (%) was calculated as the ratio of the absorbance the compound-treated well vs. the no-compound well. This assay was performed in triplicate.

Bacillus subtilis [3] = settings: for antimicrobial activity: absence of PBA; for PBA dependence of bacterial growth suppression: with vs without PBA; for MIC: no PBA
Experimental: We then investigated the boron dependence of B1 by determining the MIC of B1 across […] of PBA concentrations (0.5 μg/mL to 100 μg/mL, FIG. 4B).

[4] = test system: methicillin-resistant strains (MRSA); assay: Activity spectrum MIC; format: cell-based, Staphylococcus; settings: PBA 50 μg/mL
Staphylococcus species = assay: Activity spectrum MIC; format: cell-based; settings: PBA 50 μg/mL
B. cereus = assay: Activity spectrum MIC; format: cell-based; settings: PBA 50 μg/mL
Streptococcus species = assay: Activity spectrum MIC; format: cell-based; settings: PBA 50 μg/mL
Pseudomonas aeruginosa = assay: Activity spectrum MIC; format: cell-based; settings: PBA 50 μg/mL
[5] = 31P NMR monitoring of complex formation; format: binding; settings: B1/PBA/C10P 1:2:1, 10% D2O
Experimental: NMR experiments were conducted on a Bruker AVIII 400 (400 MHZ) spectrometer. Chemical shifts (δ) are relative to tetramethylsilane, boric acid, and phosphoric acid for ^1H, ^11B, and ^31P spectra, respectively. The ^11B spectrum of PBA (20 μL, 10.0 mg/mL) in 10% D2O (550 μL) was first obtained. Next, C10P (17 μL, 16 mg/mL) was added directly into the NMR tube, and both the ^11B and ^31P spectra were obtained. B1 (1.2 mg, powder) was then added, followed spectra acquisition. Finally, CaCl2) was added to the solution in the NMR tube, so that the final calcium concentration is ˜5 mM. Note that the ^31P spectrum of C10P alone was collected separately.
Mass spectrometry (MS) and nuclear magnetic resonance (NMR) offered additional evidence of complex formation at the molecular level. High-resolution native electrospray ionization mass spectrometry (HR-NESI-MS) is commonly used to study noncovalent interactions.^[15] Using HR-NESI-MS, we observed the expected m/z for binary, ternary, and quaternary complexes at both the positive and negative modes (FIGS. 5B and 5C, FIGS. 15-18 and FIGS. 23-24). We then performed phosphorous (^31P) and boron (^11B) NMR to monitor the complex formation process. […] When B1 was added to the C10P/PBA mixture, no phosphorous signal could be detected at δ 3 or greater, and two new peaks at δ 0.4 and 0.0 appeared. […]

E. faecalis = assay: Activity spectrum MIC; format: cell-based; settings: PBA 50 μg/mL

In the case of `O=Cc1ccccc1B(O)O` [2-formylphenylboronic acid], the “growth inhibitory zone, boron species in combination with B1” value (“growth inhibitory zone, boron species” below) (Bacillus subtilis [1]) was “effective”.

With `OB(O)c1cc(C(F)(F)F)cc(C(F)(F)F)c1` [3,5-(bis(trifluoromethyl)phenyl) boronic acid] the “growth inhibitory zone, boron species” value (Bacillus subtilis [1]) was “effective”.

For `Cc1cc(C)cc(B(O)O)c1` [3,5-dimethylphenylboronic acid], the “growth inhibitory zone, boron species” value (Bacillus subtilis [1]) was “effective”.

In the case of `OB(O)c1cccc(O)c1` [3-hydroxylphenylboronic acid], the “growth inhibitory zone, boron species” value (Bacillus subtilis [1]) was “effective”.

With `OB(O)c1cccnc1` [3-pyridylboronic acid] the “growth inhibitory zone, boron species” value (Bacillus subtilis [1]) was “effective”.

With `CSc1ccc(B(O)O)cc1` [4-(methylthio) phenylboronic acid] the “growth inhibitory zone, boron species” value (Bacillus subtilis [1]) was “effective”.

For `Nc1ccc(B(O)O)cc1` [4-aminophenylboronic acid], the “growth inhibitory zone, boron species” value (Bacillus subtilis [1]) was “effective”.

In the case of `N#Cc1ccc(B(O)O)cc1` [4-cyanophenylboronic acid], the “growth inhibitory zone, boron species” value (Bacillus subtilis [1]) was “effective”.

In the case of `OB(O)c1ccc(F)cc1` [4-fluorophenylboronic acid], the “growth inhibitory zone, boron species” value (Bacillus subtilis [1]) was “effective”.

With `OB(O)c1ccc(O)cc1` [4-hydroxylphenylboronic acid] the “growth inhibitory zone, boron species” value (Bacillus subtilis [1]) was “effective”.

With `COC(=O)c1ccc(B(O)O)cc1` [4-methoxycarbonyl phenylboronic acid] the “growth inhibitory zone, boron species” value (Bacillus subtilis [1]) was “effective”.

For `COc1ccc(B(O)O)cc1` [4-methoxyphenylboronic acid], the “growth inhibitory zone, boron species” value (Bacillus subtilis [1]) was “effective”.

With `OB(O)c1ccncc1` [4-pyridylboronic acid] the “growth inhibitory zone, boron species” value (Bacillus subtilis [1]) was “effective”.

With `Cc1ccc(B(O)O)cc1` [4-tolylboronic acid] the “growth inhibitory zone, boron species” value (Bacillus subtilis [1]) was “effective”.

With `CCCCCCCCCCCCCCCC(=O)N[C@@H](CO)C(=O)N[C@H]1CNC(=O)[C@@H]2CCCN2C(=O)[C@H]([C@@H](C)CC)NC(=O)[C@@H]([C@@H](C)O)NC(=O)CNC(=O)[C@H](CO)NC(=O)CNC(=O)[C@H](CC(=O)O)NC(=O)CNC(=O)[C@H]2CCCCN2C1=O` [B1] (Palmitoyl-S[Dap][dPip]GDGSG[d(aThr)]IP; lactam 2-C) the susceptibility [2] was “similarly susceptible”, the antibacterial activity (Escherichia coli) was “no activity” and the growth inhibition (Rhodococcus hoagii) was “inhibited the growth”. For the same molecule, the IC50 (HEK293T cells) was “greater than 128 μg/mL”, the “dependence of antibacterial activity on calcium” value (Bacillus subtilis [3]; LB, PBA 50 μg/mL (0.41 mM), FIG. 4A) was “completely independent of calcium” and the antimicrobial activity (Bacillus subtilis [3]; no calcium supplements) was “none of them were active”. The “response of antimicrobial activity to varying calcium concentration” value (Bacillus subtilis [3]; fixed PBA 100 μg/mL (0.82 mM)) was “no change”, the “antimicrobial activity when no calcium was added” value (Bacillus subtilis [3]; fixed PBA 100 μg/mL (0.82 mM), no calcium added) was “equally effective” and the “PBA dependence of bacterial growth suppression” value (Bacillus subtilis [3]) was “only able to suppress bacterial growth in the presence of PBA”. For the same molecule, the susceptibility [4] was “similarly susceptible”, the growth inhibition (Staphylococcus species) was “inhibited the growth” and the growth inhibition (B. cereus) was “inhibited the growth”. The growth inhibition (Streptococcus species) was “inhibited the growth”, the antibacterial activity (Pseudomonas aeruginosa) was “no activity” and the C10P sequestration [5] was “sequestered all C10P”. The growth inhibition (E. faecalis) was “inhibited the growth”.

With `CCCCCCCCCCCCCCCC(=O)N[C@@H](CO)C(=O)N[C@H]1CNC(=O)[C@@H]2CCCN2C(=O)[C@H]([C@@H](C)CC)NC(=O)[C@@H]([C@@H](C)O)NC(=O)CNC(=O)[C@H](CCO)NC(=O)CNC(=O)[C@H](CC(=O)O)NC(=O)CNC(=O)[C@H]2CCCCN2C1=O` [B3, Ser-Dap-Pip-Gly-Asp-Gly-Hse-Gly-Thr-Ile-Pro] (Palmitoyl-S[Dap][dPip]GDG[hSer]G[d(aThr)]IP; lactam 2-C) the antimicrobial activity (Bacillus subtilis [3]; no calcium supplements) was “none of them were active” and the “PBA dependence of bacterial growth suppression” value (Bacillus subtilis [3]) was “only able to suppress bacterial growth in the presence of PBA”.

In the case of `CCCCCCCCCCCCCCCC(=O)N[C@@H](CCO)C(=O)N[C@H]1CNC(=O)[C@@H]2CCCN2C(=O)[C@H]([C@@H](C)CC)NC(=O)[C@@H]([C@@H](C)O)NC(=O)CNC(=O)[C@H](CO)NC(=O)CNC(=O)[C@H](CC(=O)O)NC(=O)CNC(=O)[C@H]2CCCCN2C1=O` [B4] (Palmitoyl-[hSer][Dap][dPip]GDGSG[d(aThr)]IP; lactam 2-C), the antimicrobial activity (Bacillus subtilis [3]; 5 mM calcium) was “weak antimicrobial activity”, the antimicrobial activity (Bacillus subtilis [3]; no calcium supplements) was “none of them were active” and the “effect of calcium concentration on MIC” value (Bacillus subtilis [3]; calcium 5 to 0.5 mM, PBA present) was “unaffected”.

With `OB(O)c1ccccc1` [PBA, phenylboronic acid, reference compound] the “growth inhibitory zone, boron species” value (Bacillus subtilis [1]) was “effective” and the IC50 (HEK293T cells; Homo sapiens, HEK-293T) was > 128 µg/mL.

In the case of `CCCCCCCCCCCCCCCC(=O)N[C@@H](CC(=O)O)C(=O)N[C@H]1CNC(=O)[C@@H]2CCCN2C(=O)[C@H]([C@@H](C)CC)NC(=O)[C@@H]([C@@H](C)O)NC(=O)CNC(=O)[C@H](CC(=O)O)NC(=O)CNC(=O)[C@H](CC(=O)O)NC(=O)CNC(=O)[C@H]2CCCCN2C1=O` [S1, reference compound] (Palmitoyl-D[Dap][dPip]GDGDG[d(aThr)]IP; lactam 2-C (inferred)), the “potency in the presence of PBA” value (Bacillus subtilis [3]; PBA 100 μg/mL (0.82 mM)) was “dramatically decreased”, the MIC (Bacillus subtilis [3]; [Ca2+]=0.5 mM) was 16 µg/mL (≈ 12.7 µM) and the MIC (Bacillus subtilis [3]; calcium 5 mM) was 4 µg/mL (≈ 3.17 µM).
